The values that follow come from patent US9511050B2, “Methods and compositions for treating cancer” (GEORGETOWN UNIVERSITY, priority 2013, dated 2016).

Read-outs that look alike come from different tables or passages of the source.

The subject of one data set is ES xenografts. The data set can be described thus: ES xenograft tumor regression in mice. The settings on record: 400 mg/kg intraperitoneal, three days, 6 total doses, tumors 300 mm^3. The format is in vivo. As to the method: FIG. 13A: Mice with ES xenografts were treated with 400 mg/kg compound or controls as indicated. Starting well-established tumors (300 mm^3), mice were treated with intraperitoneal compound for three days, 6 total doses. FIG. 13B: H and E stained tumors from same experiment.
YK-4-279 upon xenograft GBM tumors is evaluated by treating animals seven days after tumor injection and those with symptomatic tumors. Early tumors are screened with Xenogen, and size correlated with MRI, and treatment started when animals 5 mm^3 lesions. YK-4-279 passes the blood-brain barrier. […] The study will measure brain tumor volumes, animal symptoms, and overall survival. At necropsy, tumors and normal adjacent brain will be evaluated by immunohistochemistry for GBM markers, apoptosis, and FLI1 regulated target genes. […] FIG. 13A: Mice with ES xenografts were treated with 400 mg/kg compound or controls as indicated. Starting well-established tumors (300 mm^3), mice were treated with intraperitoneal compound for three days, 6 total doses. FIG. 13B: H and E stained tumors from same experiment.

In data set [1] the test system is PANC1 (a human pancreatic carcinoma). As to the kind of experiment: IC50 activity in PANC1 cells. The format is cell-based. As to the method:
(§1) Compounds provided in Table 2 were prepared using methods similar to those described herein. The structures and IC50 activities of particular compounds in PANC1 (a human pancreatic carcinoma), TC32 (human ESFT cell line), and TC71 (human ESFT cell line) cells are summarized in Table 2.

Data set [2] is described as follows: Rat pharmacokinetics, IV injection, observation. The format is in vivo. The settings on record: rats, rapid injection; did not occur with slower infusion. The text has this: One of the significant challenges in getting novel targeted therapy into GBM is overcoming the blood-brain barrier (BBB).
Another data set addresses T1, EWS-FLI1/RHA interaction (Homo sapiens, UniProt Q01543+Q01844).
T1 construct: endogenous in cells; host or cells: TC32
T1 sequence (Q01844+Q01543 with tags, fused parts or gaps): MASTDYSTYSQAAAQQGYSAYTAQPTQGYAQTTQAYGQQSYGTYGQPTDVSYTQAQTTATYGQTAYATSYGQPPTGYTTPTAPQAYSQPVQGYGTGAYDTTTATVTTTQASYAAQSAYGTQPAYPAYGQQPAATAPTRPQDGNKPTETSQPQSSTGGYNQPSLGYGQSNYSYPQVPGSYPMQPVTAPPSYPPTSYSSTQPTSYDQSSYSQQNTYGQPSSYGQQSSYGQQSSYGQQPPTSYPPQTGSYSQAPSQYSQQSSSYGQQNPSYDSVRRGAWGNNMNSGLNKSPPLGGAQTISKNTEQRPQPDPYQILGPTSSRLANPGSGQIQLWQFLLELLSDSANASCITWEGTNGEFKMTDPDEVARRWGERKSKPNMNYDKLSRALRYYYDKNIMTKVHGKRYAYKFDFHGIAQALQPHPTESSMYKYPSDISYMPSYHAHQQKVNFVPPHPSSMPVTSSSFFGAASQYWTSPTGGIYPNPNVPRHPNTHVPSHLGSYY
The data set can be described thus: Immunoblot/co-precipitation of RHA and EWS-FLI1 from treated TC32 cells. Format: cell-based. The settings on record: TC32 cell lysates. A general note: In western blotting, separated proteins are transferred to a membrane and probed.

The subject of another data set is Ewing Sarcoma xenograft. The settings on record: Ewing Sarcoma xenograft models; cited from earlier work.
The next data set addresses T2, EWS-FLI1 (Homo sapiens, UniProt Q01543).
T2 sequence (Q01543 220-452 limits assumed): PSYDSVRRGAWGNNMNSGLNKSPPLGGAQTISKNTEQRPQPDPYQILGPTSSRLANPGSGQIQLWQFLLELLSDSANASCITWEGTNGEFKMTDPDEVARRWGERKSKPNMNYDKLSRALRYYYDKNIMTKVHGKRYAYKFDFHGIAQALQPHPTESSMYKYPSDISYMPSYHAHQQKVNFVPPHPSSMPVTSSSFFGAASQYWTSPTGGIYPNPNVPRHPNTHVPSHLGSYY
The settings on record: read-out: affinity (KD) for EWS-FLI1; cited from earlier work.

In a further data set the test system is ESFT cells. The data set can be described thus: Growth inhibition of ESFT cells. Format: cell-based. The conditions noted are these: ESFT cells growing in monolayer. Here is the method:
(§2) Growth inhibition of ESFT cells was measured for various concentrations of particular compounds.

A further data set concerns GBM cell lines. The data set can be described thus: Growth of GBM cell lines. Format: cell-based. The settings on record: range over GBM cell lines.
Data set [3] relates to TC32 (human ESFT cell line). The data set can be described thus: IC50 activity in TC32 cells. The format is cell-based. Here is the method:
as §1

Data set [4] has as its system TC71 (human ESFT cell line). The data set can be described thus: IC50 activity in TC71 cells. The format is cell-based. Here is the method:
as §1, §2

The target in the next data set is BSA (Bos taurus, UniProt P02769). The data set can be described thus: Surface plasmon resonance binding to non-specific protein BSA. The settings on record: SPR, read-out: affinity for BSA.
Sequence of BSA (P02769 25-607): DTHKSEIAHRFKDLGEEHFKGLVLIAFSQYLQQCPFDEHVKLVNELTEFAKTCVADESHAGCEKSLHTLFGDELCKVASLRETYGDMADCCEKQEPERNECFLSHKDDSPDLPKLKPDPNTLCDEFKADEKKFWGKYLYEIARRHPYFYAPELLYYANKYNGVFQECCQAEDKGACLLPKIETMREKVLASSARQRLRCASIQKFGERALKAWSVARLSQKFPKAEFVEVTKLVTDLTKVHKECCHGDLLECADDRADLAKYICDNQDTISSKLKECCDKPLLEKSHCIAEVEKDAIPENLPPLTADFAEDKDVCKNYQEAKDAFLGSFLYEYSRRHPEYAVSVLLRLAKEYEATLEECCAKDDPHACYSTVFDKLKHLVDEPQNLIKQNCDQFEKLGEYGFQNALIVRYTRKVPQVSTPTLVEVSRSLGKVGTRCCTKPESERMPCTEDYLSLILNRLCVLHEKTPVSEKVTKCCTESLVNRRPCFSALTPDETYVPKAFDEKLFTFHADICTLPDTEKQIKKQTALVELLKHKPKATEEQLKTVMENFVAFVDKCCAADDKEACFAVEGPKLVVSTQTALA

Experimental for BSA: Steady state kinetics were measured on a Biacore T100 instrument, as previously described (Erkizan H V, Kong Y, Merchant M, Schlottmann S, Barber-Rotenberg J S, Yuan L, et al. A small molecule blocking oncogenic protein EWS-FLI1 interaction with RNA helicase A inhibits growth of Ewing's sarcoma. Nat Med. 2009 July; 15(7):750-6. PubMed PMID: 19584866. Eng; Barber-Rotenberg J S, Selvanath), SPR sensograms are not shown.
Text for GBM cell lines: Seven cell lines were selected with a spectrum of genetic abnormalities that occur in GBM. […] A panel of GBM cell lines were acquired that represent the heterogeneity of the disease.

The term IC50 denotes the midpoint of a concentration-inhibition curve. In the case of `COc1ccc(C(=O)CC2(O)C(=O)Nc3c(Cl)ccc(Cl)c32)cc1` (racemic) [YK-4-279], the tumor response entry with ES xenografts is “significant tumor regression”. The IC50 in data set [1] (Homo sapiens, PANC-1, PANC1 cells) is 20 µM; in data set [1] (PANC1 cells, read-out: IC50 PANC 1) it was 34 µM; in the data set with ESFT cells, 900 nM; in the data set on GBM cell lines, 0.5 to 9.9 µM; in data set [3] (Homo sapiens, TC-32, TC32 cells) it was 940 nM; in data set [3] (TC32 cells), 766 nM. The half-maximal inhibitory concentration (IC50) was 918 nM in data set [4] (Homo sapiens, TC-71, TC71 cells) and 1430 nM in data set [4] (TC71 cells). Also, the “observation after IV injection” value in [2] is “rats became somnolent after rapid injection”. The “interaction of RHA with EWS-FLI1” value at EWS-FLI1/RHA interaction (co-precipitation) was “did disrupt their interactions”. For the same molecule, the “level of EWS-FLI1 or RHA” value on EWS-FLI1/RHA interaction (immunoblot) is “did not directly affect the level of EWS-FLI1 or RHA”. Further, the tumor growth entry in the data set on Ewing Sarcoma xenograft is on record as “reduced tumor growth”. For the same molecule, the Kd was 9.5 µM at EWS-FLI1 and 122 µM at BSA.
